Each structure is given as a SMILES string. Where only a bound is given, the exact number is not on record here.

The values below come from patent US20240109918A1, “HETEROCYCLIC COMPOUNDS AND USES THEREOF” (Kumquat Biosciences Inc., priority 2022, published 2024).

One assay has as its target T1, KRASwt (Homo sapiens, UniProt P01116).
T1 construct: made in house; host or cells: E. coli BL21 (DE3)
Description: Bio-Biochem-PPI-HTRF Ras-SOS1 interaction assay (KRAS wt). It is filed as biochemical. The following applies: 5 nM. The method in brief:
(§1)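 GST-tagged K-Ras (wt or G12D) with anti-GST-Eu(K) donor was mixed with His-hSOS1 and anti-6His-XL665 acceptor in HEPES pH 7.4/NaCl/DTT/BSA/Igepal buffer, with compound in duplicate from 10 μM down to 0.01 μM. After about 10 min or longer, HTRF 665/620 nm ratio gave IC50.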

The target in another assay is T2, KRASG12D (Homo sapiens, UniProt P01116, G12D).
T2 construct: made in house; host or cells: E. coli BL21 (DE3)
Briefly: Bio-Biochem-PPI-HTRF Ras-SOS1 interaction assay (KRAS G12D). Conditions: 5 nM. It counts as biochemical. Put shortly: as §1
In general terms: In TR-FRET formats the signal depends on donor and acceptor labels being close together.

T2 sequence (P01116 1-188 isoform P01116-2 G12D): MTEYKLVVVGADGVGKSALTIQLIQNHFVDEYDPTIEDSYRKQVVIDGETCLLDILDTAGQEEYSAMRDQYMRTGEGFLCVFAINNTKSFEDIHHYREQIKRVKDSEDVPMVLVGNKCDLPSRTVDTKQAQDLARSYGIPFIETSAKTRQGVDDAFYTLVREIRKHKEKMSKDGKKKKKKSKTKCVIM
T1 sequence (P01116 1-188 isoform P01116-2): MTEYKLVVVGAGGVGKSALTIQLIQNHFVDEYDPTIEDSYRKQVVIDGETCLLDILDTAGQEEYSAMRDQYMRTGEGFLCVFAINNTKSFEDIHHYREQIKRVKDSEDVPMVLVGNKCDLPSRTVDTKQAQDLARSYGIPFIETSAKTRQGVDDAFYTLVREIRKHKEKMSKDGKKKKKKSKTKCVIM

For orientation: IC50 means the concentration that gives 50% inhibition. Low readings indicate greater potency in that assay, high ones weaker potency in that assay. In the case of `C[C@H](Oc1nc(N2CCCC3(CN(C(=O)N4CC(F)(F)C4)C3)C2)c2cc(Cl)c(-c3ccc(F)c4sc(N)c(C#N)c34)c(F)c2n1)[C@@H]1CCCN1C` [compound 212, 2-amino-4-(6-chloro-4-(2-(3,3-difluoroazetidine-1-carbonyl)-2,6-diazaspiro[3.5]nonan-6-yl)-8-fluoro-2-((S)-1-((S)-1-methylpyrrolidin-2-yl)ethoxy)quinazolin-7-yl)-7-fluorobenzo[b]thiophene-3-carbonitrile], the IC50 at KRASwt and against KRASG12D was < 5 µM each time.
As for `N#Cc1c(N)sc2c(F)ccc(-c3c(Cl)cc4c(N5CCCCC6(CN(C(=O)[C@H]7CCOC7)C6)C5)nc(OC[C@@]56CCCN5C[C@H](F)C6)nc4c3F)c12` [compound 319, 2-amino-4-(6-chloro-8-fluoro-2-(((2R,7aS)-2-fluorotetrahydro-1H-pyrrolizin-7a(5H)-yl)methoxy)-4-(2-((S)-tetrahydrofuran-3-carbonyl)-2,6-diazaspiro[3.6]decan-6-yl)quinazolin-7-yl)-7-fluorobenzo[b]thiophene-3-carbonitrile], the IC50 against KRASwt and at KRASG12D was < 5 µM throughout.
`N#Cc1c(N)sc2c(F)ccc(-c3c(Cl)cc4c(N5CCCCC6(CN(C(=O)N7CC(C#N)C7)C6)C5)nc(OC[C@@]56CCCN5C[C@H](F)C6)nc4c3F)c12` [compound 274, 1-(6-(7-(2-amino-3-cyano-7-fluorobenzo[b]thiophen-4-yl)-6-chloro-8-fluoro-2-(((2R,7aS)-2-fluorotetrahydro-1H-pyrrolizin-7a(5H)-yl)methoxy)quinazolin-4-yl)-2,6-diazaspiro[3.6]decane-2-carbonyl)azetidine-3-carbonitrile]: the IC50 against KRASwt and at KRASG12D was < 5 µM throughout.
Take `N#Cc1c(N)sc2c(F)ccc(-c3c(F)c4nc(OC[C@@]56CCCN5C[C@H](F)C6)nc(N5CCCCC6(CN(C(=O)C7CC7(F)F)C6)C5)c4c(=O)n3C3CC3)c12` (stereo partly drawn) [compound 246, 2-amino-4-(6-cyclopropyl-4-(2-(2,2-difluorocyclopropane-1-carbonyl)-2,6-diazaspiro[3.6]decan-6-yl)-8-fluoro-2-(((2R,7aS)-2-fluorotetrahydro-1H-pyrrolizin-7a(5H)-yl)methoxy)-5-oxo-5,6-dihydropyrido[4,3-d]pyrimidin-7-yl)-7-fluorobenzo[b]thiophene-3-carbonitrile]: the IC50 against KRASwt and against KRASG12D was < 5 µM throughout.
Turning to `N#Cc1c(N)sc2c(F)ccc(-c3c(Cl)cc4c(N5CCCCC6(CN(C(=O)c7ccnn7CCC(F)F)C6)C5)nc(OC[C@@]56CCCN5C[C@H](F)C6)nc4c3F)c12` [compound 341, 2-amino-4-(6-chloro-4-(2-(1-(3,3-difluoropropyl)-1H-pyrazole-5-carbonyl)-2,6-diazaspiro[3.6]decan-6-yl)-8-fluoro-2-(((2R,7aS)-2-fluorotetrahydro-1H-pyrrolizin-7a(5H)-yl)methoxy)quinazolin-7-yl)-7-fluorobenzo[b]thiophene-3-carbonitrile], the IC50 at KRASwt and against KRASG12D was < 5 µM throughout.
For the molecule `N#Cc1c(N)sc2c(F)ccc(-c3c(Cl)cc4c(N5CCCCC6(CN(C(=O)C7(CN8CCOCC8)CC7)C6)C5)nc(OC[C@@]56CCCN5C[C@H](F)C6)nc4c3F)c12` [compound 278, 2-amino-4-(6-chloro-8-fluoro-2-(((2R,7aS)-2-fluorotetrahydro-1H-pyrrolizin-7a(5H)-yl)methoxy)-4-(2-(1-(morpholinomethyl)cyclopropane-1-carbonyl)-2,6-diazaspiro[3.6]decan-6-yl)quinazolin-7-yl)-7-fluorobenzo[b]thiophene-3-carbonitrile], the IC50 on KRASwt and on KRASG12D was < 5 µM in each case.
As to `N#Cc1c(N)sc2c(F)ccc(-c3c(Cl)cc4c(N5CCCCC6(CN(C(=O)COC(F)(F)F)C6)C5)nc(OC[C@@]56CCCN5C[C@H](F)C6)nc4c3F)c12` [compound 268, 2-amino-4-(6-chloro-8-fluoro-2-(((2R,7aS)-2-fluorotetrahydro-1H-pyrrolizin-7a(5H)-yl)methoxy)-4-(2-(2-(trifluoromethoxy)acetyl)-2,6-diazaspiro[3.6]decan-6-yl)quinazolin-7-yl)-7-fluorobenzo[b]thiophene-3-carbonitrile], the IC50 on KRASwt and at KRASG12D was < 5 µM throughout.
As to `N#Cc1c(N)sc2c(F)ccc(-c3c(Cl)cc4c(N5CCCCC6(CN(C(=O)N7CCCC7)C6)C5)nc(OC[C@@]56CCCN5C[C@H](F)C6)nc4c3F)c12` [compound 231, 2-amino-4-(6-chloro-8-fluoro-2-(((2R,7aS)-2-fluorotetrahydro-1H-pyrrolizin-7a(5H)-yl)methoxy)-4-(2-(pyrrolidine-1-carbonyl)-2,6-diazaspiro[3.6]decan-6-yl)quinazolin-7-yl)-7-fluorobenzo[b]thiophene-3-carbonitrile], the IC50 at KRASwt and against KRASG12D was < 5 µM each time.
In the case of `N#Cc1c(N)sc2c(F)ccc(-c3c(Cl)cc4c(N5CCCCC6(CN(C(=O)C7(C(F)F)COC7)C6)C5)nc(OC[C@@]56CCCN5C[C@H](F)C6)nc4c3F)c12` [compound 340, 2-amino-4-(6-chloro-4-(2-(3-(difluoromethyl)oxetane-3-carbonyl)-2,6-diazaspiro[3.6]decan-6-yl)-8-fluoro-2-(((2R,7aS)-2-fluorotetrahydro-1H-pyrrolizin-7a(5H)-yl)methoxy)quinazolin-7-yl)-7-fluorobenzo[b]thiophene-3-carbonitrile], the IC50 against KRASwt and against KRASG12D was < 5 µM throughout.
In the case of `COCC(=O)N1CC2(CCCN(c3nc(O[C@@H](C)[C@@H]4CCCN4C)nc4c(F)c(-c5ccc(F)c6sc(N)c(C#N)c56)c(Cl)cc34)C2)C1` [compound 138, 2-amino-4-(6-chloro-8-fluoro-4-(2-(2-methoxyacetyl)-2,6-diazaspiro[3.5]nonan-6-yl)-2-((S)-1-((S)-1-methylpyrrolidin-2-yl)ethoxy)quinazolin-7-yl)-7-fluorobenzo[b]thiophene-3-carbonitrile], the IC50 against KRASwt and against KRASG12D was < 5 µM in each case.
As for `N#Cc1c(N)sc2c(F)ccc(-c3c(Cl)cc4c(N5CC(F)(F)OC6(CN(C(=O)C7CC7(F)F)C6)C5)nc(OC[C@@]56CCCN5C[C@H](F)C6)nc4c3F)c12` (stereo partly drawn) [compound 167, 2-amino-4-(6-chloro-4-(2-(2,2-difluorocyclopropane-1-carbonyl)-6,6-difluoro-5-oxa-2,8-diazaspiro [3.5]nonan-8-yl)-8-fluoro-2-(((2R,7aS)-2-fluorotetrahydro-1H-pyrrolizin-7a(5H)-yl)methoxy)quinazolin-7-yl)-7-fluorobenzo[b] thiophene-3-carbonitrile], the IC50 against KRASwt and at KRASG12D was < 5 µM throughout.
For `N#Cc1c(N)sc2c(F)ccc(-c3c(Cl)cc4c(N5CCCCC6(CN(C(=O)C7CC8CCC7O8)C6)C5)nc(OC[C@@]56CCCN5C[C@H](F)C6)nc4c3F)c12` (stereo partly drawn) [compound 303, 4-(4-(2-(7-oxabicyclo[2.2.1]heptane-2-carbonyl)-2,6-diazaspiro[3.6]decan-6-yl)-6-chloro-8-fluoro-2-(((2R,7aS)-2-fluorotetrahydro-1H-pyrrolizin-7a(5H)-yl)methoxy)quinazolin-7-yl)-2-amino-7-fluorobenzo[b]thiophene-3-carbonitrile], the IC50 against KRASwt and against KRASG12D was < 5 µM each time.
For `N#Cc1c(N)sc2c(F)ccc(-c3c(Cl)cc4c(N5CCCCC6(CN(C(=O)N7CCC7)C6)C5)nc(OC[C@@]56CCCN5C[C@H](F)C6)nc4c3F)c12` [compound 272, 2-amino-4-(4-(2-(azetidine-1-carbonyl)-2,6-diazaspiro[3.6]decan-6-yl)-6-chloro-8-fluoro-2-(((2R,7aS)-2-fluorotetrahydro-1H-pyrrolizin-7a(5H)-yl)methoxy)quinazolin-7-yl)-7-fluorobenzo[b]thiophene-3-carbonitrile], the IC50 against KRASwt and at KRASG12D was < 5 µM each time.
For the molecule `CC1(C)CN(c2nc(OC[C@@]34CCCN3C[C@H](F)C4)nc3c(F)c(-c4ccc(F)c5sc(N)nc45)c(Cl)cc23)CC2(CNC2)O1` [compound 166, 4-(6-chloro-4-(6,6-dimethyl-5-oxa-2,8-diazaspiro[3.5]nonan-8-yl)-8-fluoro-2-(((2R,7aS)-2-fluorotetrahydro-1H-pyrrolizin-7a(5H)-yl)methoxy)quinazolin-7-yl)-7-fluorobenzo[d]thiazol-2-amine], the IC50 at KRASwt and at KRASG12D was < 5 µM in each case.
Regarding `CC(=O)N1CC2(CCN(c3nc(OC[C@@]45CCCN4C[C@H](F)C5)nc4c(F)c(-c5ccc(F)c6sc(N)nc56)c(Cl)cc34)CC2)C1` [compound 165, 1-(7-(7-(2-amino-7-fluorobenzo[d]thiazol-4-yl)-6-chloro-8-fluoro-2-(((2R,7aS)-2-fluorotetrahydro-1H-pyrrolizin-7a(5H)-yl)methoxy)quinazolin-4-yl)-2,7-diazaspiro[3.5]nonan-2-yl)ethan-1-one], the IC50 on KRASwt and against KRASG12D was < 5 µM each time.
As to `N#Cc1c(N)sc2c(F)ccc(-c3c(Cl)cc4c(N5CCCCC6(CN(C(=O)C7CC7C(F)F)C6)C5)nc(OC[C@@]56CCCN5C[C@H](F)C6)nc4c3F)c12` (stereo partly drawn) [compound 287, 2-amino-4-(6-chloro-4-(2-(2-(difluoromethyl)cyclopropane-1-carbonyl)-2,6-diazaspiro[3.6]decan-6-yl)-8-fluoro-2-(((2R,7aS)-2-fluorotetrahydro-1H-pyrrolizin-7a(5H)-yl)methoxy)quinazolin-7-yl)-7-fluorobenzo[b]thiophene-3-carbonitrile], the IC50 at KRASwt and against KRASG12D was < 5 µM in each case.
Regarding `CN1CCC[C@H]1COc1nc(N2CCOC3(CNC3)C2)c2cc(Cl)c(-c3ccc(F)c4sc(N)c(C#N)c34)c(F)c2n1` (single isomer, unassigned) [compound 114], the IC50 against KRASwt and against KRASG12D was < 5 µM each time.
